The target in one data set is T1, Human 5-lipoxygenase (Homo sapiens, UniProt P09917).
T1 construct: purchased Cayman 60402; host or cells: insect cells
T1 sequence (P09917 1-674): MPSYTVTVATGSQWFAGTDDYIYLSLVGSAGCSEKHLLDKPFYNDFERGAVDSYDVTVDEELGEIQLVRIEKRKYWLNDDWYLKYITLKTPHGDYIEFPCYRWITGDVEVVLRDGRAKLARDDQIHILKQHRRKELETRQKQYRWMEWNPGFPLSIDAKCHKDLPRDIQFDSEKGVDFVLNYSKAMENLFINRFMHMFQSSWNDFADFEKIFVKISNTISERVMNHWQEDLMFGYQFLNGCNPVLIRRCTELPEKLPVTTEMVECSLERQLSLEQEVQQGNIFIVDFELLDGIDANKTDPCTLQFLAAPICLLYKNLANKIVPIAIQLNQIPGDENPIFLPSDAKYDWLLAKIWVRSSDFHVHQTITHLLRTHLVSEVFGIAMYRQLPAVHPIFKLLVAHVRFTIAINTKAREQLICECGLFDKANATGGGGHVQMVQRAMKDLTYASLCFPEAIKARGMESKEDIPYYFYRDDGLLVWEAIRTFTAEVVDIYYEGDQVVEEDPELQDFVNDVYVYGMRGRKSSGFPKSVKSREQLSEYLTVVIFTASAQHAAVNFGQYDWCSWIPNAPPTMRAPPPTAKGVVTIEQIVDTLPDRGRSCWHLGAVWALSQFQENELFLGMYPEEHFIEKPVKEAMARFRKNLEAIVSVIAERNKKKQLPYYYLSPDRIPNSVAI
Briefly: Activity of compounds against 5-LO enzyme (LTB4 measurement and/or fluorescence method). It is filed as biochemical. As to conditions: for inhibition at 10 µM: 5-LO, single concentration of 10 uM in duplicate; for IC50: 6 or 11 point dose response in duplicate. The method, boiled down: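 Two read-outs: LTB4 measured by EIA and/or LC/MS/MS with LTB4-d4 standard after 15 min RT compound preincubation with insect-cell 5-LO and a 5 min 37 °C reaction on 3 uM arachidonic acid (0.1 mM ATP, pH 7.4). The room-temperature fluorescence format used 20 uM H2DCFDA, 100 uM ATP, 3 uM arachidonic acid, 5 min; IC50 from 6/11-point curves.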

Each structure is given as a SMILES string.

By inhibition is commonly meant the relative decrease from the control value, in per cent. Low readings indicate a weak effect, high ones a strong effect. What is called melting point is the temperature of the solid-liquid transition. Turning to `CCc1nc2cc(Cl)ccn2c1C(=O)NCc1ccc(N2C=CC(=O)CC2)cc1` [compound 201, 7-Chloro-2-ethyl-N-(4-(4-oxo-3,4-dihydropyridin-1(2H)-yl)benzyl)imidazo[1,2-a]pyridine-3-carboxamide], the melting point fell in the range of 201.3 to 202.8 °C. Also, the inhibition at 10 µM on Human 5-lipoxygenase is below 40%.

In turn, `CCc1nc2ccc(Cl)cn2c1C(=O)NCc1ccc(N2CCC(COc3ccc(OC(F)(F)F)cc3)CC2)cc1` [compound 213, 6-chloro-2-ethyl-N-(4-(4-((4-(trifluoromethoxy)phenoxy)methyl)piperidin-1-yl)benzyl)imidazo[1,2-a]pyridine-3-carboxamide] had a melting point of 183.6 °C. Besides, on Human 5-lipoxygenase, the inhibition at 10 µM is below 40%.

In the case of `CCc1nc2ccc(F)cn2c1C(=O)NCc1ccc(N2CCC(c3ccc(OC(F)(F)F)cc3)CC2)cc1` [compound 372, 2-ethyl-6-fluoro-N-(4-(4-(4-(trifluoromethoxy)phenyl)piperidin-1-yl)benzyl)imidazo[1,2-a]pyridine-3-carboxamide], the melting point is > 167.9 °C (dec.). On Human 5-lipoxygenase, this molecule returned an inhibition at 10 µM below 40%.

In the case of `CCc1nc2ccc(Cl)cn2c1C(=O)NCc1cccc(N2CCN(c3ccc(OC(F)(F)F)cc3)CC2)c1` [compound 356, 6-chloro-2-ethyl-N-(3-(4-(4-(trifluoromethoxy)phenyl)piperazin-1-yl)benzyl)imidazo[1,2-a]pyridine-3-carboxamide], the melting point was > 168 °C (dec.). Moreover, the inhibition at 10 µM on Human 5-lipoxygenase is 40 to 69%.

With `CCCC(=O)NCc1ccc(N2CCN(c3ccc(CNC(=O)c4c(CC)nc5cc(Cl)ccn45)cc3)CC2)cc1` [compound 125, N-(4-(4-(4-(Butyramidomethyl)phenyl)piperazin-1-yl)benzyl)-7-chloro-2-ethylimidazo[1,2-a]pyridine-3-carboxamide], the melting point lay in the range of 238 to 239.2 °C. The inhibition at 10 µM on Human 5-lipoxygenase fell in the range of 40 to 69%.

The term IC50 denotes the concentration at which inhibition is half-maximal. The low end stands for inhibition by little substance, the high end for a need for much substance. In the case of `CCc1nc2cc(Cl)ccn2c1COc1ccc(N2CCN(c3ccc(F)cc3)CC2)cc1` [compound 400, 7-chloro-2-ethyl-3-((4-(4-(4-fluorophenyl)piperazin-1-yl)phenoxy)methyl)imidazo[1,2-a]pyridine], the melting point amounted to 167.5 °C. At Human 5-lipoxygenase, this molecule yielded an IC50 below 1 µM.

For the molecule `CCc1nc2cc(Cl)ccn2c1C(=O)NCc1ccc2oc(C3CCCCC3)nc2c1` [compound 299, 7-Chloro-N-((2-cyclohexylbenzo[d]oxazol-5-yl)methyl)-2-ethylimidazo[1,2-a]pyridine-3-carboxamide], the melting point was 163 °C. At Human 5-lipoxygenase, this molecule gave an inhibition at 10 µM above 69% and an IC50 below 1 µM.

For `CCc1nc2ccc(Cl)cn2c1C(=O)NCc1ccc(N2CCCC2)cc1` [compound 191, 6-Chloro-2-ethyl-N-(4-(pyrrolidin-1-yl)benzyl)imidazo[1,2-a]pyridine-3-carboxamide], the melting point lay in the range of 222 to 223 °C. Also, the inhibition at 10 µM against Human 5-lipoxygenase was below 40%.

With `CCc1nc2ccc(Cl)cn2c1C(=O)NCc1ccc(C2CCOCC2)cc1` [compound 363, 6-chloro-2-ethyl-N-(4-(tetrahydro-2H-pyran-4-yl)benzyl)imidazo[1,2-a]pyridine-3-carboxamide], the melting point is > 195.5 °C (dec.). This molecule also returned an inhibition at 10 µM against Human 5-lipoxygenase below 40%.

Consider `CCc1nc2cc(-c3ccncc3)ccn2c1C(=O)NCc1ccc(N2CCOCC2)cc1` [compound 255, 2-Ethyl-N-(4-morpholinobenzyl)-7-(pyridin-4-yl)imidazo[1,2-a]pyridine-3-carboxamide], for which the melting point came to 210.1 °C. This molecule also registered an inhibition at 10 µM on Human 5-lipoxygenase below 40%.

With `CCc1nc2ccc(C)cn2c1C(=O)NCc1ccc(N2CCN(c3ccc(F)cc3)CC2)cc1` [compound 231, 2-Ethyl-N-(4-(4-(4-fluorophenyl)piperazin-1-yl)benzyl)-6-methylimidazo[1,2-a]pyridine-3-carboxamide], the melting point was determined as 187.6 °C. At Human 5-lipoxygenase, this molecule registered an inhibition at 10 µM above 69% and a half-inhibitory concentration (IC50) of 1 to 20 µM.

Molecule `CCc1nc2ccc(Cl)cn2c1-c1nc(Cc2ccc(Oc3ccc(F)cc3)cc2)no1` [compound 289, 5-(6-Chloro-2-ethylimidazo[1,2-a]pyridin-3-yl)-3-(4-(4-fluorophenoxy)benzyl)-1,2,4-oxadiazole] showed a melting point of 129.9 °C. This molecule also showed an inhibition at 10 µM at Human 5-lipoxygenase below 40%.

`CCc1nc2ccc(Cl)cn2c1C(=O)NCc1ccc(N2CC(C)OC(C)C2)cc1` (stereo not shown) [compound 182, 6-Chloro-N-(4-(2,6-dimethylmorpholino)benzyl)-2-ethylimidazo[1,2-a]pyridine-3-carboxamide] had a melting point of 176 to 177 °C. On Human 5-lipoxygenase, this molecule returned an inhibition at 10 µM below 40%.

The molecule `CCc1nc2cc(N3CCN(C)CC3)ccn2c1C(=O)NCc1ccc(N2CCOCC2)cc1` [compound 254, 2-Ethyl-7-(4-methylpiperazin-1-yl)-N-(4-morpholinobenzyl)imidazo[1,2-a]pyridine-3-carboxamide] returned a melting point of 204.8 °C. This molecule came in with an inhibition at 10 µM against Human 5-lipoxygenase below 40%.

As to `CCc1nc2cc(Cl)ccn2c1C(=O)NCc1ccc(N2CCOCC2)cc1` [compound 93, 7-Chloro-2-ethyl-N-(4-morpholinobenzyl)imidazo[1,2-a]pyridine-3-carboxamide], the melting point is 195 °C. Moreover, the inhibition at 10 µM at Human 5-lipoxygenase is below 40%.

`CCc1nc2ccccn2c1C(=O)NCc1ccc(N2CCN(c3ccc(OC(F)(F)F)cc3)CC2)cc1` [compound 181, 2-Ethyl-N-(4-(4-(4-(trifluoromethoxy)phenyl)piperazin-1-yl)benzyl)imidazo[1,2-a]pyridine-3-carboxamide] came in with a melting point of 178 to 179 °C. On Human 5-lipoxygenase, the inhibition at 10 µM is above 69% and the half-maximal inhibitory concentration (IC50) is 1 to 20 µM.

Regarding `CCc1nc2ccc(Cl)cn2c1COc1ccc(OC(F)(F)F)cc1` [compound 143, 6-Chloro-2-ethyl-3-((4-(trifluoromethoxy)phenoxy)methyl)imidazo[1,2-a]pyridine], the melting point is 127 to 128 °C. The molecule further yielded an inhibition at 10 µM at Human 5-lipoxygenase above 69%.

Consider `CCc1nc2ccc(Cl)cn2c1C(=O)NCc1ccc(N2CCC(CO)CC2)cc1` [compound 230, 6-Chloro-2-ethyl-N-(4-(4-(hydroxymethyl)piperidin-1-yl)benzyl)imidazo[1,2-a]pyridine-3-carboxamide], for which the melting point worked out at 161.1 °C. The inhibition at 10 µM on Human 5-lipoxygenase was below 40%.

In turn, `CCc1nc2c(F)cccn2c1C(=O)NCc1ccc(Oc2ccc(OC(F)(F)F)cc2)cc1` [compound 224, 2-Ethyl-8-fluoro-N-(4-(4-(trifluoromethoxy)phenoxy)benzyl)imidazo[1,2-a]pyridine-3-carboxamide] came in with a melting point of 105.6 °C. On Human 5-lipoxygenase, this molecule yielded an inhibition at 10 µM above 69% and a concentration for half-maximal inhibition (IC50) below 1 µM.

In turn, `CCc1nc2ccc(Cl)cn2c1C(=O)NCc1ccc(N2CCC(F)(F)CC2)cc1` [compound 235, 6-chloro-N-(4-(4,4-difluoropiperidin-1-yl)benzyl)-2-ethylimidazo[1,2-a]pyridine-3-carboxamide] gave a melting point of 194.2 °C. For the same molecule, on Human 5-lipoxygenase, the inhibition at 10 µM was below 40%.

For the molecule `CCc1nc2cc(Br)ccn2c1C(=O)NCc1ccc(N2CCOCC2)cc1` [compound 253, 7-Bromo-2-ethyl-N-(4-morpholinobenzyl)imidazo[1,2-a]pyridine-3-carboxamide], the melting point worked out at 202.6 °C. At Human 5-lipoxygenase, this molecule displayed an inhibition at 10 µM below 40%.

Molecule `CCc1nc2cc(Cl)ccn2c1C(=O)NCc1ccc(N2CCC(c3ccc(Cl)cc3)CC2)cc1` [compound 297, 7-Chloro-N-(4-(4-(4-chlorophenyl)piperidin-1-yl)benzyl)-2-ethylimidazo[1,2-a]pyridine-3-carboxamide] gave a melting point of 177 °C. In addition, the inhibition at 10 µM against Human 5-lipoxygenase was in the range of 40 to 69%.

Molecule `CCc1nc2cc(-c3cccnc3)ccn2c1C(=O)NCc1ccc(N2CCOCC2)cc1` [compound 305, 2-Ethyl-N-(4-morpholinobenzyl)-7-(pyridin-3-yl)imidazo[1,2-a]pyridine-3-carboxamide] displayed a melting point of 208.5 °C. This molecule gave an inhibition at 10 µM against Human 5-lipoxygenase below 40%.

Molecule `CCc1nc2cc(C)ccn2c1C(=O)NCc1ccc2ccccc2c1` [compound 95, 2-Ethyl-7-methyl-N-(naphthalen-2-ylmethyl)imidazo[1,2-a]pyridine-3-carboxamide] came in with a melting point of 192 °C. On Human 5-lipoxygenase, this molecule registered an inhibition at 10 µM of 40 to 69%.

For `CCc1nc2cc(Cl)ccn2c1C(=O)NCc1ccc(N2CCN(Cc3ccc(F)cc3)CC2)cc1` [compound 126, 7-Chloro-2-ethyl-N-(4-(4-(4-fluorobenzyl)piperazin-1-yl)benzyl)imidazo[1,2-a]pyridine-3-carboxamide], the melting point was 141 to 142 °C. At Human 5-lipoxygenase, the inhibition at 10 µM was above 69% and the IC50 was in the range of 1 to 20 µM.

The values above are taken from patent US9029389B2 (Institut Pasteur Korea, priority 2011, dated 2015).
